# Assay results published in US10919893B2, “Process for the preparation of crystalline form C of avibactam sodium” (Sandoz AG, priority 2017, dated 2021).
# Counter-ions that a name gives are not always drawn.
# How the values were obtained:
# [1] = cited from earlier work
# [2] = solid-state stability of avibactam forms against moisture, temperature stress and storage; assay type: physicochemical
# bacteria = details: at clinically relevant doses; cited from earlier work
smiles,measurement,setting,value
"NC(=O)[C@@H]1CC[C@@H]2CN1C(=O)N2OS(=O)(=O)O [form C, avibactam sodium]",polymorphic stability (conversion to other crystalline forms),[1]; ambient conditions and conditions of manufacturing of solid pharmaceutical dosage forms,does not convert to other crystalline forms
"NC(=O)[C@@H]1CC[C@@H]2CN1C(=O)N2OS(=O)(=O)O [form E, avibactam sodium]",relative humidity above which the form is particularly stable,[1]; per WO 2011/042560 A1,> 70%
same,stability during long storage and at higher temperature,[1]; per WO 2011/042560 A1,tends to lose water and to hydrolyze
same,temperature above which the form dehydrates to monohydrate form A,[2],above 60 °C
"NC(=O)[C@@H]1CC[C@@H]2CN1C(=O)N2OS(=O)(=O)O [Avibactam, [(2S,5R)-2-carbamoyl-7-oxo-1,6-diazabicylco[3.2.1]octan-6-yl] hydrogen sulfate]",antibacterial activity in itself,bacteria,no antibacterial activity
"NC(=O)[C@@H]1CC[C@@H]2CN1C(=O)N2OS(=O)(=O)O [form A, avibactam sodium]",behaviour upon further temperature stress,[2],dehydrates to the anhydrous form B
